Data reported in patent US9840532B2, “5′-substituted nucleoside compounds” (Eli Lilly and Company, priority 2015, dated 2017).

test system: MDM4 and SmD1-me2S; assay: Mouse A375 Tumor Xenograft MDM4 and SmD1-me2S Western Blot Assay; type: in vivo; settings: A-375, PO given QD or BID, tumors 4 hr after last dose, 4 days of dosing, read-out: dose achieving 50% effect (ED50)
Experimental: Grow A375 cells in medium (DMEM high glucose/10% Hi FBS) at 37° C. in an incubator (5% CO2) for 18-24 hr. Mix the cells with MATRIGEL® (1:1) and implant the cells (5×10^6/animal) subcutaneously into the rear flank of the mice (female nude mice, Harlan). The implanted tumor cells grow as solid tumors. Measure the tumor volume and body weight twice a week with a caliper. After tumor volume reaches approximately 200-250 mm^3 (about 20 days after implant), randomize the animals, and group them into compound treatment groups. Administer the test compounds (formulated in SWFI with 1% HEC/0.25% TWEEN® 80/0.05% Antifoam) by oral gavage. Test compound doses are in the range of 3 to 100 mg/kg. Sacrifice mice 4 hr after the last dose (4 days of dosing).
Mouse A375 Tumor Xenograft MDM4 and SmD1-me2S Western Blot Assay
For western blotting, homogenize the tumor tissues as performed above in 500 μL of kit XY lysis buffer including protease inhibitor cocktail complete Mini (Roche, cat. #: 11 836 170 001) [this cocktail contains […] Trypsin-Chymotrypsin Inhibitor (Sigma cat. # T9777); 10 μg/mL TPCK (Sigma cat. # T4376); 10 μg/mL Aprotinin (Sigma cat. # A1153); 60 mM Beta-Glycerophosphate disodium salt hydrate (Sigma cat. # G9891); 1% TRITON™ X-100 (Sigma cat. # T9284); 25 mM Tris pH ˜7.5 (INVITROGEN™ cat. #15567-027); 2.5 mM sodium pyrophosphate dibasic (Fluka cat. #71501); 300 mM […] (Mallinckrodt cat. #7581); 2 mM TAME (Sigma cat. # T4626); 15 mM pNPP (pNPP disodium salt hexahydrate, Sigma cat. #P4744); 5 mM benzamidine hydrochloride hydrate (Sigma cat. #B6506); 10 mM sodium fluoride (Sigma cat. #S-7920); 1 mM sodium metavanadate anhydrous (Sigma cat. #59088); […]. 1 mM DTT (Sigma cat. # D9779); 15 mM EDTA pH ˜8.0 (INVITROGEN™ cat. #15575020); 5 mM EGTA pH ˜8.0 (Sigma cat. #E3889); […] (Fisher/Axxora cat. # A350012m001); 0.25 mM Pefa Bloc (Sigma cat. #76307). Spin the protein lysates down at 8,000 rpm for 10 min and transfer supernatants to 1.5 mL tubes for sonication (amplitude 25% yield) for 15 seconds. […]

Row | SMILES | ED50 [mg/kg]
1 | C[C@@](O)(c1ccc(Cl)cc1)[C@H]1O[C@@H](n2ccc3c(N)ncnc32)[C@H](O)[C@@H]1O [Example 3, (2R,3R,4S,5S)-2-(4-Aminopyrrolo[2,3-d]pyrimidin-7-yl)-5-[(1R)-1-(4-chlorophenyl)-1-hydroxy-ethyl]tetrahydrofuran-3,4-diol] | ≤ 30
2 | Nc1ncnc2c1ccn2[C@@H]1O[C@H]([C@H](O)c2ccc(Cl)cc2)[C@@H](O)[C@H]1O [Example 1, (2R,3R,4S,5R)-2-(4-Aminopyrrolo[2,3-d]pyrimidin-7-yl)-5-[(R)-(4-chlorophenyl)-hydroxy-methyl]tetrahydrofuran-3,4-diol] | ≤ 30
3 | Nc1ncnc2c1ccn2[C@@H]1O[C@H]([C@H](O)c2ccccc2)[C@@H](O)[C@H]1O [Example 2, (2R,3R,4S,5R)-2-(4-Aminopyrrolo[2,3-d]pyrimidin-7-yl)-5[(R)-hydroxy(phenyl)methyl]tetrahydrofuran-3,4-diol] | ≤ 30
